Source: US11524950B2, “Treatment of immune-related and inflammatory diseases” (Celgene Corporation, priority 2012, dated 2022)

Columns and labels:
[1] = test system: DBA/2 mice; test: Bleomycin-induced dermal fibrosis mouse model (regression of established fibrosis); assay type: in vivo; details: 50 mg/kg, p<0.0001
Experimental: (§1) DBA/2 mice were used in this study. Eight animals were used per treatment group in the study. Mice were kept in the animal house under standard conditions with food and water ad libidum.
(§2) The compound was suspended, not dissolved, in this vehicle. The formulation was homogenized with a Teflon pestle and mortar (Potter-Elvehjem tissue grinder) using a motorized Eberbach tissue homogenizer. The daily drug stock concentration used in these studies was 3 mg/ml.
(§3) Bleomycin was obtained from the pharmacy of the University of Erlangen-Nuremberg and freshly prepared once a week. Skin fibrosis was induced in 6-week-old DBA mice by local intracutaneous injections of 100 μl of bleomycin dissolved in 0.9% NaCl, at a concentration of 0.5 mg/ml, every other day in defined areas of 1.5 cm^2 on the upper back.
To evaluate regression of fibrosis, a modified model of bleomycin induced dermal fibrosis was used. Mice were pre-challenged with bleomycin to induce a robust skin fibrosis. One group received treatment with the test compound, while challenge with bleomycin was ongoing for additional three weeks. The outcome of this group was compared to mice challenged with bleomycin for six weeks (prevention of further progression) and to mice challenged with bleomycin for three weeks followed by NaCl for additional three weeks (induction of regression). The following groups were used in the regression study: • Control group: Intradermal injection of NaCl for six weeks. Control treatment consisted of administration of the vehicle. • Untreated bleomycin group 1 (regression): Intradermal injection of bleomycin for three weeks followed by intradermal injections of NaCl for another three weeks. Treatment consisted of administration of the vehicle. […]
(§4) Dermal thickness was determined by staining with hematoxylin and eosin and activated fibroblasts by using immunohistochemistry for alpha smooth muscle actin (α-SMA). The dermal thickness, as determined by the modified Rodnan Skin Score, is currently the most common primary outcome in human clinical trials for anti-fibrotic agents in SSc. […] Dermal thickness was analyzed with a Nikon Eclipse 80i microscope (Nikon, Badhoevedorp, The Netherlands) by measuring the maximal distance between the epidermal-dermal junction and the dermal-subcutaneous fat junction at 4 different skin sections in each mouse. […]
(§5) For quantification of myofibroblasts, skin sections were deparaffinized and incubated with 5% bovine serum albumin for 60 minutes. Cells positive for α-SMA were detected by incubation with monoclonal anti-α-SMA antibodies (clone 1A4; Sigma-Aldrich, Steinheim, Germany) for 2 hours at room temperature followed by incubation with 3% hydrogen peroxide for 10 minutes. […]

[2] = test system: Tsk-1 mouse; test: Tight skin-1 (Tsk-1) mouse model: hypodermal thickness and hydroxyproline; assay type: in vivo; details: 50 mg/kg; p≤0.001
Excerpt: First, the inhibitory effects of the compound on fibrosis in the Tsk-1 tight skin mouse model were also investigated.

[3] = test system: DBA/2 mice; test: Bleomycin-induced dermal fibrosis mouse model (prevention); assay type: in vivo; details: 50 mg/kg, IP, QD, p<0.0001
Experimental: as §1
The vehicle, 0.5% carboxymethyl cellulose (CMC)/0.25% Tween 80, was prepared in distilled H2O and dissolved overnight on a magnetic stirrer (add 0.5 g CMC; Sigma #C9481) and 0.25 ml Tween 80 (Sigma #P8074) to 99.75 ml to make a total of 100 ml 0.5% CMC/0.25% Tween 80).
as §2, §3
The mouse model of bleomycin induced dermal fibrosis is widely used to evaluate anti-fibrotic therapeutics. In this model, a localized dermal fibrosis is induced by intradermal injections with bleomycin every other day for 3 weeks. This model resembles early, inflammatory stages of SSc. To evaluate potential effects on prevention of fibrosis, treatment was initiated simultaneously with the first bleomycin injection. […] Treatment consisted of administration of the vehicle (0.5% CMC/0.25% Tween 80). • Untreated bleomycin group: Intradermal injection of bleomycin for three weeks. […] Injection of Imatinib (50 mg/kg; IP, QD). […] See Akhmetshina A. et al., Arthritis Rheum 2009; 60(1):219-224.
as §4, §5

[4] = test system: IgM; test: IgM production in normal PBMC differentiation cultures (ELISA); details: Homo sapiens, read-out: IgM IC50 (nM) Normal (n = 3)
[5] = test system: IgG; test: IgG production in normal B cell / PBMC differentiation cultures (ELISA); details: Homo sapiens
[6] = test system: IgM; test: IgM production by SLE patient PBMC (ELISA); details: Homo sapiens, read-out: IgM IC50 (nM) SLE (n = 3)
[7] = test system: IgG; test: IgG production by SLE patient PBMC (ELISA); details: Homo sapiens, read-out: IgG IC50 (nM) SLE (n = 3)
[8] = biological target: T1, CRBN (Homo sapiens, UniProt Q96SW2); test: Competitive CRBN binding with thalidomide analog-conjugated beads (U266 extracts); details: preincubation at 3 uM
T1 construct: endogenous in cells; host or cells: U266 multiple myeloma cells (cell extracts)
Experimental: Binding studies to CRBN were conducted using thalidomide analog-conjugated beads in a competitive assay. […] Affinity beads coupled to a thalidomide acid analog were incubated with the U266 extracts and, after extensive washing of the beads, the bound proteins were eluted. CRBN binding to the thalidomide-coupled affinity beads was determined by quantitative CRBN immunoblot determination.

[9] = test system: IL-2; test: T-cell costimulation: IL-2 production (immobilized anti-CD3, ELISA); assay type: cell-based; details: Homo sapiens, 48 h, read-out: EC50 for co-stimulated IL-2 production by T cells
Experimental: CRBN ubiquitination was measured in HEK293T cells, which were transfected with an amino-terminal His-biotin-tagged CRBN construct, then preincubated with compounds for one hour followed by treatment with the MG132 proteasome inhibitor (to arrest degradation of ubiquitinated proteins). Cells were lysed and processed to measure CRBN ubiquitination by SDS-PAGE and immunoblot analysis using an anti-ubiquitin antibody. Cell proliferation studies were conducted in enalidomide-sensitive and refractory multiple myeloma cells. […] T-cell costimulation was measured in purified primary human T cells stimulated using immobilized anti-CD3 antibody in cell culture for 2 days, and cytokine secretion was measured by ELISA.

[10] = PBMC, read-out: IgG IC50 (nM) Normal (n = 3)

For Cc1ccc(NC(=O)c2ccc(CN3CCN(C)CC3)cc2)cc1Nc1nccc(-c2cccnc2)n1 [Imatinib, reference compound], the “reduction of bleomycin induced dermal thickness” value [1] was 50±0.3%, the “reduction of myofibroblast numbers” value [1] was 78±0.15% and the “reduction of collagen content of the skin (hydroxyproline levels)” value [2] was 67%. For the same compound, the “reduction of hypodermal thickening” value [2] was 58%, the “reduction of dermal thickening” value ([3]; 3 weeks) was 60±0.34% and the “reduction of myofibroblast numbers” value [3] was 81±0.11%.

CCOc1cc([C@@H](CS(C)(=O)=O)N2C(=O)c3cccc(NC(C)=O)c3C2=O)ccc1OC [apremilast] was tested, and the IC50 [4] was over 10000 nM, the IC50 [5, 10] was over 10000 nM and the IC50 [6] was over 10000 nM. It also gave an IC50 [7] of over 10000 nM.

In the case of Nc1cccc2c1CN(C1CCC(=O)NC1=O)C2=O (stereo not drawn) [lenalidomide], the IC50 ([5]; read-out: IgG production IC50) is reported as 320 nM.

With Nc1cccc2c1C(=O)N(C1CCC(=O)NC1=O)C2=O (stereo not drawn) [pomalidomide] the IC50 [4] was 17 nM, the IC50 [5, 10] was 63 nM and the IC50 ([5]; read-out: IgG production IC50) was 49 nM. The “less CRBN bound to the affinity beads” value [8] was “approximately 50%”, the IC50 [6] was 3.8 nM and the EC50 [9] was 10 nM. It also gave an IC50 [7] of 19 nM.
